Experimental findings from patent publication US9409876B2, “Bradykinin receptor antagonists and pharmaceutical compositions containing them” (DOMPE' FARMACEUTICI S.P.A., priority 2013, dated 2016) are described below.

The target of the experiment is T1, BKB1 receptors (Homo sapiens, UniProt P46663).
T1 construct: Human (IMR-90) lung fibroblast cells expressing native BKB1 receptors; endogenous in cells; host or cells: IMR-90 human lung fibroblasts, treated with human IL-1 to up-regulate BKB1
T1 sequence (P46663 1-353): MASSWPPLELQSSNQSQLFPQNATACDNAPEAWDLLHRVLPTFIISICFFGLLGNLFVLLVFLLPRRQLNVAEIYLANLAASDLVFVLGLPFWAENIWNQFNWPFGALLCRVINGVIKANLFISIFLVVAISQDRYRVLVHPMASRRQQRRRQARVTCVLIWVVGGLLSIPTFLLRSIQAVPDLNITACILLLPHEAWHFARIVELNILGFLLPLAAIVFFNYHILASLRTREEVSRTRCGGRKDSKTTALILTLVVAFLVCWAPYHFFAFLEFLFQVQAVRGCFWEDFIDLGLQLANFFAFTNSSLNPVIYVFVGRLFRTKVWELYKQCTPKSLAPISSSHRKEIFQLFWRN
As to the kind of experiment: Calcium Mobilization Assay (FLIPR), IMR-90 cells, BKB1. Format: cell-based. Conditions: IL-1 induced IMR-90 cells, agonist desArg10-kallidin (DAKD). Here is the method: Calcium Mobilization Assay (FLIPR)—Human (IMR-90) lung fibroblast cells expressing native BKB1 receptors were harvested by trypsinization and seeded into black wall/clear bottom 96-well plates (Costar 3904; Corning Life Sciences, Acton, Mass.) at approximately 13,000 cells/well. After 1 day incubation, cells were treated with human IL-1 (0.35 ng/ml) in 10% FBS/MEM for 2 h to up-regulate BKB1 receptors. Induced cells were loaded with fluorescent calcium indicator by incubation with 2.3 µM Fluo-4/acetoxymethyl ester (Invitrogen) at 37° C. for 1.5 h in the presence of an anion transport inhibitor (2.5 mM probenecid in 1% FBS/MEM). Extracellular dye was removed by washing with assay buffer (2.5 mM probenecid, 0.1% BSA in 20 mM HEPES/HBSS without bicarbonate or phenol red, pH 7.5) and cell plates were kept in the dark until used. Test compounds were assayed at eight concentrations in triplicate.
On the technique in general: A change in cytosolic calcium serves as a functional read-out for many receptors and channels.
Consider `Cc1ccc(C(C(=O)NCC2CCCO2)N(CC2CCCCC2)C(=O)CN(C)C)cc1` (stereo not shown) [34 (mix), N-(cyclohexylmethyl)-2-(dimethylamino)-N-{1-(4-methylphenyl)-2-oxo-2-[(tetrahydrofuran-2-ylmethyl)amino]ethyl}acetamide], for which the IC50 is 1.1 µM.

On to `Cc1ccc(C(C(=O)NCC2CCCO2)N(Cc2cccc(C)c2)C(=O)CN(C)C)cc1` (stereo not shown) [35 (mix), 2-(dimethylamino)-N-(3-methylbenzyl)-N-{1-(4-methylphenyl)-2-oxo-2-[(tetrahydrofuran-2-ylmethyl)amino]ethyl}acetamide], for which the IC50 is 1.7 µM. The result for `Cc1ccc(C(C(=O)NCC2CCCO2)N(CC2CCCCC2)C(=O)Cc2c[nH]cn2)cc1` (stereo not shown) [36 (mix), N-(cyclohexylmethyl)-2-(1H-imidazol-4-yl)-N-{1-(4-methylphenyl)-2-oxo-2-[(tetrahydrofuran-2-ylmethyl)amino]ethyl}acetamide] reads 13.8 µM; that for `Cc1ccc(C(C(=O)NCC2CCCO2)N(CC2CCCCC2)C(=O)Cc2ccccc2)cc1` (stereo not shown) [37 (mix), N-(cyclohexylmethyl)-2-phenyl-N-{1-(4-methylphenyl)-2-oxo-2-[(tetrahydrofuran-2-ylmethyl)amino]ethyl}acetamide], 6.2 µM; that for `Cc1ccc(C(C(=O)NCC2CCCO2)N(Cc2cccc(C)c2)C(=O)C2CC2C)cc1` (stereo not shown) [38 (mix), 2-methyl-N-(3-methylbenzyl)-N-{1-(4-methylphenyl)-2-oxo-2-[(tetrahydrofuran-2-ylmethyl)amino]ethyl}cyclopropanecarboxamide], 12.7 µM.

`Cc1ccc(C(C(=O)NCC2CCCO2)N(Cc2csc3ccccc23)C(=O)CN(C)C)cc1` (stereo not shown) [39 (mix), N-(1-benzothiophen-3-ylmethyl)-2-(dimethylamino)-N-{1-(4-methylphenyl)-2-oxo-2-[(tetrahydrofuran-2-ylmethyl)amino]ethyl}acetamide]: the IC50 came to 1.2 µM. Consider `Cc1ccc(C(C(=O)NCC2CCCO2)N(CC2CCCCC2)C(=O)Cc2cccc(C)c2)cc1` (stereo not shown) [40 (mix), N-(cyclohexylmethyl)-2-(3-methylphenyl)-N-{1-(4-methylphenyl)-2-oxo-2-[(tetrahydrofuran-2-ylmethyl)amino]ethyl}acetamide], for which the IC50 came to 5.1 µM. The result for `CCC(CC)CN(C(=O)Cc1ccccc1C)C(C(=O)NCC1CCCO1)c1ccc(C)cc1` (stereo not shown) [41 (mix), N-(2-ethylbutyl)-2-(2-methylphenyl)-N-{1-(4-methylphenyl)-2-oxo-2-[(tetrahydrofuran-2-ylmethyl)amino]ethyl}acetamide] reads 4.3 µM; that for `CCC(CC)CN(C(=O)Cc1ccc(F)cc1)C(C(=O)NCC1CCCO1)c1ccc(C)cc1` (stereo not shown) [42 (mix), N-(2-ethylbutyl)-2-(4-fluorophenyl)-N-{1-(4-methylphenyl)-2-oxo-2-[(tetrahydrofuran-2-ylmethyl)amino]ethyl}acetamide], 9.6 µM; that for `Cc1ccc(C(C(=O)NCC2CCCO2)N(Cc2cccn2C)C(=O)CN(C)C)cc1` (stereo not shown) [43 (mix), 2-(dimethylamino)-N-[(1-methyl-1H-pyrrol-2-yl)methyl]-N-{1-(4-methylphenyl)-2-oxo-2-[(tetrahydrofuran-2-ylmethyl)amino]ethyl}acetamide], 9.5 µM. Turning to `Cc1ccc(C(C(=O)NCC2CCCO2)N(CC2CCCC2)C(=O)Cc2ccccc2C)cc1` (stereo not shown) [44 (mix), N-(cyclopentylmethyl)-2-(2-methylphenyl)-N-{1-(4-methylphenyl)-2-oxo-2-[(tetrahydrofuran-2-ylmethyl)amino]ethyl}acetamide], the IC50 was 12.6 µM. Then `Cc1ccc(C(C(=O)NCC2CCCO2)N(CC2CCCC2)C(=O)Cc2cccc(C)c2)cc1` (stereo not shown) [45 (mix), N-(cyclopentylmethyl)-2-(3-methylphenyl)-N-{1-(4-methylphenyl)-2-oxo-2-[(tetrahydrofuran-2-ylmethyl)amino]ethyl}acetamide], with 13.1 µM; and `Cc1ccc(C(C(=O)NCC2CCCO2)N(Cc2cccnc2)C(=O)Cc2ccccc2C)cc1` (stereo not shown) [46 (mix), 2-(2-methylphenyl)-N-(pyridin-3-ylmethyl)-N-{1-(4-methylphenyl)-2-oxo-2-[(tetrahydrofuran-2-ylmethyl)amino]ethyl}acetamide], with 11.7 µM; and `Cc1ccc(C(C(=O)NCC2CCCO2)N(CC2CCCC2)C(=O)Cc2ccccc2)cc1` (stereo not shown) [47 (mix), N-(cyclopentylmethyl)-N-{1-(4-methylphenyl)-2-oxo-2-[(tetrahydrofuran-2-yl)methylamino]ethyl}2-phenylacetamide], with 9.8 µM. Consider `Cc1ccc(C(C(=O)NCC2CCCO2)N(CC2CCCCC2)C(=O)CC2CCCC2)cc1` (stereo not shown) [48 (mix), N-(cyclohexylmethyl)-2-cyclopentyl-N-{1-(4-methylphenyl)-2-oxo-2-[(tetrahydrofuran-2-ylmethyl)amino]ethyl}acetamide], for which the IC50 is 15 µM.

`Cc1ccc(C(C(=O)NCC2CCCO2)N(CC(C)C)C(=O)Cc2c[nH]cn2)cc1` (stereo not shown) [49 (mix), 2-(1H-imidazol-4-yl)-N-(2-methylpropyl)-N-{1-(4-methylphenyl)-2-oxo-2-[(tetrahydrofuran-2-ylmethyl)amino]ethyl}acetamide]: the IC50 came out at 14.7 µM. Turning to `CCC(CC)CN(C(=O)C1CCCCC1)C(C(=O)NCC1CCCO1)c1ccc(C)cc1` (stereo not shown) [50 (mix), N-(2-ethylbutyl)-N-{1-(4-methylphenyl)-2-oxo-2-[(tetrahydrofuran-2-ylmethyl)amino]ethyl}cyclohexanecarboxamide], the IC50 stood at 14.2 µM. In the case of `Cc1ccc(C(C(=O)NCC2CCCO2)N(CC2CCCC2)C(=O)CC2CCCC2)cc1` (stereo not shown) [51 (mix), 2-cyclopentyl-N-cyclopentylmethyl-N-{1-(4-methylphenyl)-2-oxo-2-[(tetrahydrofuran-2-ylmethyl)amino]ethyl}acetamide], the IC50 amounted to 13 µM.

`COc1ccccc1CN(C(=O)CC(C)C)C(C(=O)NCC1CCCO1)c1ccc(C2CC2)cc1` (stereo not shown) [52 (mix), N-(2-methoxybenzyl]-N-[1-(4-cyclopropylphenyl)-2-oxo-2-[(tetrahydrofuran-2-yl)methylamino]ethyl)-3-methylbutanamide]: the IC50 is 0.063 µM.

`COc1ccccc1CN(C(=O)Cn1nnc2ccccc21)C(C(=O)NCC1CCCO1)c1ccc(C(F)(F)F)cc1` (stereo not shown) [53 (mix), 2-(1H-benzotriazol-1-yl)-N-(2-methoxybenzyl)-N-{1-(4-trifluoromethylphenyl)-2-oxo-2-[(tetrahydrofuran-2-ylmethyl)amino]ethyl}acetamide]: the IC50 was found to be 0.297 µM. As for `COc1ccccc1CN(C(=O)CC(C)C)C(C(=O)NCC1CCCO1)c1ccc(C(F)(F)F)cc1` (stereo not shown) [54 (mix)], the IC50 is 0.528 µM. Take `COc1ccccc1CN(C(=O)Cn1nnc2ccccc21)[C@@H](C(=O)NC[C@H]1CCCO1)c1ccc(C)cc1` [Compound 1 (R,R), 2-(1H-benzotriazol-1-yl)-N-(2-methoxybenzyl)-N-{[(1R)-1-(4-methylphenyl)]-2-oxo-2-[(2R)-(tetrahydrofuran-2-ylmethyl)amino]ethyl}acetamide]: the IC50 was 0.043 µM. Then `COc1ccccc1CN(C(=O)c1coc(C)n1)[C@@H](C(=O)NC[C@H]1CCCO1)c1ccc(C)cc1` [Compound 2 (R,R)], with 0.063 µM; and `COc1ccccc1CN(C(=O)Cc1cccc(F)c1F)[C@@H](C(=O)NC[C@H]1CCCO1)c1ccc(C)cc1` [Compound 3 (R,R), 2-(2,3-difluorophenyl)-N-(2-methoxybenzyl)-N-{(1R)-1-(4-methylphenyl)-2-oxo-2-[(2R)-(tetrahydrofuran-2-ylmethyl)amino]ethyl}acetamide], with 0.54 µM. For `COc1ccccc1CN(C(=O)c1ccco1)[C@@H](C(=O)NC[C@H]1CCCO1)c1ccc(C)cc1` [Compound 4 (R,R), N-(2-methoxybenzyl)-N-[(1R)-1-(4-methylphenyl)-2-oxo-2-{[(2R)tetrahydrofuran-2-ylmethyl]amino}ethyl]furan-2-carboxamide], the IC50 was 0.358 µM. Then `COc1ccccc1CN(C(=O)Cc1c(F)cccc1F)[C@@H](C(=O)NC[C@H]1CCCO1)c1ccc(C)cc1` [Compound 6 (R,R), 2-(2,6-difluorophenyl)-N-(2-methoxybenzyl)-N-{(1R)-1-(4-methylphenyl)-2-oxo-2-[(2R)-(tetrahydrofuran-2-ylmethyl)amino]ethyl}acetamide], with 0.456 µM; and `COc1ccccc1CN(C(=O)Cc1ccccc1)[C@@H](C(=O)NC[C@H]1CCCO1)c1ccc(C)cc1` [Compound 7 (R,R), N-(2-methoxybenzyl)-N-{(1R)-1-(4-methylphenyl)-2-oxo-2-[(2R)-(tetrahydrofuran-2-ylmethyl)amino]ethyl}-2-phenylacetamide], with 0.2 µM. Then `COc1ccccc1CN(C(=O)Cn1ccnn1)[C@@H](C(=O)NC[C@H]1CCCO1)c1ccc(C)cc1` [Compound 30 (R,R), N-(2-methoxybenzyl)-N-{(1R)-1-(4-methylphenyl)-2-oxo-2-[(2R)-(tetrahydrofuran-2-ylmethyl)amino]ethyl}-2-(1H-1,2,3-triazol-1-yl)acetamide], with 0.011 µM.

By IC50 is commonly meant the point on the concentration scale where inhibition reaches its midpoint.
